Data on one substance can be found in publication PMC3981819, “Signaling Properties and Pharmacological Analysis of Two Sulfakinin Receptors from the Red Flour Beetle, Tribolium castaneum” (PLoS ONE, 2014).

For assay [1], the system named is Trica-SKR1. The experiment in a line: Aequorin-luminescence assay, CHO-WTA11 cells (Gα16) transfected with Trica-SKR1. Format: cell-based, Tribolium castaneum. Particulars: aequorin bioluminescence. As to the method: (§1) General pharmacological studies were performed in Chinese Hamster Ovary (CHO) WTA11 cells, stably coexpressing apoaequorin, a zeocin resistance gene and the promiscuous Gα16, which couples most agonist-induced GPCRs to the phospholipase C and Ca^2+ pathway irrespective of their natural signaling cascade. CHO-PAM28 cells stably expressing apoaequorin and a puromycin resistance gene but not Gα16 and HEK293T cells (Invitrogen) were used to determine possible effects on Ca^2+ and/or cAMP second messenger systems, respectively. All cell lines were cultured in Dulbecco’s Modified Eagles Medium nutrient mixture F12-Ham (DMEM/F12; Invitrogen) supplemented with 1% penicillin/streptomycin (10000 units/ml penicillin and 10 mg/ml streptomycin in 0.9% NaCl; Invitrogen) to prevent bacterial contamination of gram-positive and gram-negative bacteria. In CHO-WTA11 culture medium 250 μg/ml zeocin (Invitrogen) was added as a selection marker, while CHO-PAM28 culture medium was supplemented with 5 μg/ml puromycin to select cells stably expressing apoaequorin. All cell culture media were supplemented with 10% fetal bovine serum (inactivated at […]; Sigma-Aldrich).
(§2) Cells were cultured in vitro as a monolayer at 37°C with a constant supply of 5% CO2 and were subcultivated twice a week. Transfections of cells were performed in T75 flasks at 60–80% confluency. Transfection reagent for CHO cells was prepared by combining 3.75 ml Opti-MEM I (Invitrogen), 7.5 μg plasmid DNA and 18.75 μl of Plus Reagent (Invitrogen). After gently mixing and 5 min incubation at room temperature 45 μl of Lipofectamine LTX was added to the mixture. This transfection medium was incubated for 30 min at room temperature and added dropwise to the cells, supplemented with 3 ml of fresh culture medium. HEK 293T cells were cotransfected with a receptor construct (6 μg) and CRE-luciferase reporter construct (3 μg), consisting of the open reading frame of the luciferase gene, downstream of a multimerized cAMP-response-element (CRE) and promoter. After transfection, cells were grown overnight before an additional 20 ml of culture medium was supplemented. Cells were again incubated overnight for a final growth phase before luminescence screens were performed.
(§3) The aequorin luminescence assay was used to measure Ca^2+ signaling in CHO cell lines. Cells were detached using phosphate buffered saline (PBS) containing 0.2% EDTA and collected in 10 ml of DMEM/F-12 (without phenol red, with L-glutamine and 10 mM HEPES; Gibco). The viable cells were quantified using a NucleoCounter NC-100 (Chemometic). Cells were pelleted by 4 min centrifugation at 800 rpm at room temperature and resuspended in DMEM/BSA (DMEM/F-12 without phenol red, with L-glutamine and 10 mM HEPES, 0.1% bovine serum albumin) at a concentration of 5×10^6 cells/ml. Cells were then shielded from light and Coelenterazine H (Invitrogen) was added at a final concentration of 5 μM. Cells were gently shaken at room temperature for 4 h under dark conditions, allowing the aequorin holoenzyme to be reconstituted. After a 10-fold dilution in DMEM/BSA, cells were incubated another 30 min under the same conditions. Pharmacological ligands were dissolved in DMEM/BSA and 50 μl of ligand was added to wells of a 96-well plate. Wells containing 50 μl of DMEM/BSA were used as a negative control, while wells containing 1 μM of ATP served as positive control. Incubated cells were added to the wells of the 96-well plate and light emission was measured for 30 s using a Mithras LB940 (Berthold Technologies). After 30 s Triton X-100 (0.2% in DMEM/BSA) was added, lysing the cells and thus serving as an internal reference. Light emission was measured for an additional 8 s after Triton X-100 was introduced in the wells. Light emission from each well was calculated relative to the total response (ligand+Triton X-100) using the output file of Mikrowin2000 software (Mikrotek). Further analysis was done in Graphpad Prism 5.

Assay [2] deals with Trica-SKR2. Put plainly: Aequorin-luminescence assay, CHO-WTA11 cells (Gα16) transfected with Trica-SKR2. Format: cell-based, Tribolium castaneum. The following applies: aequorin bioluminescence. As for the experimental part: as §1, §2, §3
Assay [3] has as its system Trica-SKR1. The experiment in a line: Aequorin-luminescence assay, CHO-PAM28 cells (no Gα16) transfected with Trica-SKR1. The following applies: CHO-PAM28 cells without Gα16; aequorin bioluminescence (Ca2+); three independent measurements in duplicate; read-out: EC50 for receptor activation in CHO-PAM28 cells, Trica-SKR1. Format: cell-based, Tribolium castaneum. As to the method:
(§4) General pharmacological studies were performed in Chinese Hamster Ovary (CHO) WTA11 cells, stably coexpressing apoaequorin, a zeocin resistance gene and the promiscuous Gα16, which couples most agonist-induced GPCRs to the phospholipase C and Ca^2+ pathway irrespective of their natural signaling cascade. CHO-PAM28 cells stably expressing apoaequorin and a puromycin resistance gene but not Gα16 and HEK293T cells (Invitrogen) were used to determine possible effects on Ca^2+ and/or cAMP second messenger systems, respectively. […]
(§5) Cells were cultured in vitro as a monolayer at 37°C with a constant supply of 5% CO2 and were subcultivated twice a week. […] HEK 293T cells were cotransfected with a receptor construct (6 μg) and CRE-luciferase reporter construct (3 μg), consisting of the open reading frame of the luciferase gene, downstream of a multimerized cAMP-response-element (CRE) and promoter. […] Cells were again incubated overnight for a final growth phase before luminescence screens were performed.
(§6) The aequorin luminescence assay was used to measure Ca^2+ signaling in CHO cell lines. […] The viable cells were quantified using a NucleoCounter NC-100 (Chemometic). […] Incubated cells were added to the wells of the 96-well plate and light emission was measured for 30 s using a Mithras LB940 (Berthold Technologies). […]

The subject of assay [4] is Trica-SKR2. The experiment in a line: Aequorin-luminescence assay, CHO-PAM28 cells (no Gα16) transfected with Trica-SKR2. The format is cell-based, Tribolium castaneum. The following applies: CHO-PAM28 cells without Gα16; aequorin bioluminescence (Ca2+); three independent measurements in duplicate; read-out: EC50 for receptor activation in CHO-PAM28 cells, Trica-SKR2. As to the method: as §4, §5, §6

Assay [5] concerns Trica-SKR1. The experiment in a line: CRE-luciferase reporter-gene assay (cAMP), HEK293T cells transfected with Trica-SKR1. Format: cell-based, Tribolium castaneum. Particulars: HEK293T cells cotransfected with CRE-luciferase; 200 μM IBMX; 3–4 h at 37°C; six independent measurements in duplicate; read-out: EC50, luciferase bioluminescence (cAMP), Trica-SKR1. As for the experimental part:
as §4, §5
(§7) The luciferase reporter-gene assay was used to quantify positive or negative coupling of the receptor to cAMP in HEK293T cells. Cotransfected HEK293T cells were detached and the viable cells were quantified using the NucleoCounter NC-100 (Chemometic) as described for CHO cells. […] Data were analyzed as described for CHO cells.
In general terms: In a reporter assay the amount or activity of a reporter protein is the signal.

In assay [6] the test system is Trica-SKR2. The experiment in a line: CRE-luciferase reporter-gene assay (cAMP), HEK293T cells transfected with Trica-SKR2. The format is cell-based, Tribolium castaneum. The following applies: HEK293T cells cotransfected with CRE-luciferase; 200 μM IBMX; 3–4 h at 37°C; three independent measurements in duplicate; read-out: EC50, luciferase bioluminescence (cAMP), Trica-SKR2. As to the method: as §4, §5, §7

The subject of assay [7] is CHO-PAM28 cells transfected with empty pcDNA3.1/V5-His-TOPO TA expression vector. Put plainly: Aequorin-luminescence assay, CHO-PAM28 cells transfected with empty expression vector. Format: cell-based, Chinese Hamster. Particulars: aequorin bioluminescence. As for the experimental part: as §4, §5, §6
Assay [8] concerns HEK293T cells transfected with empty pcDNA3.1/V5-His-TOPO TA expression vector. The experiment in a line: CRE-luciferase reporter-gene assay, HEK293T cells transfected with empty expression vector. The format is cell-based. The following applies: CRE-luciferase bioluminescence. As to the method:
as §4, §5, §7

The mark [9] stands for this setting: peptide at 1 μM, relative to sTrica-SK(5–13) at 1 μM = 100%, at least three biological repeats, each in duplicate.

In the case of “FDDY(SO3H)GHMRFa [sTrica-SK(5–13), sulfated C-terminal fragment of T. castaneum SK comprising amino acids 5–13, reference compound]”, the “concentration at which maximal response was attained, Trica-SKR1” value in the assay on Trica-SKR1 [1] came out at 100 nM. In addition, the EC50 (usually the midpoint of the concentration-response curve) in the assay with Trica-SKR1 [1] (1 fM to 1 μM, ± 95% confidence interval, three independent measurements in duplicate) was 0.0995 ± 0.028 nM; with Trica-SKR2 [2] (1 fM to 1 μM, three independent measurements in duplicate), 0.524 ± 0.2 nM; in the assay with Trica-SKR1 [3], 0.0585 ± 0.024 nM; with Trica-SKR2 [4], 1.61 ± 0.45 nM; in the assay with Trica-SKR1 [5] it was 0.0049 ± 0.0042 nM; with Trica-SKR2 [6] it was 1.4 ± 0.3 nM. The “% Trica-SKR1 (relative activation)” value in the assay on Trica-SKR1 [1] (setting [9]) is given as 100.0%. The “concentration at which maximal response was attained, Trica-SKR2” value in the assay with Trica-SKR2 [2] is 100 nM. Moreover, the “% Trica-SKR2 (relative activation)” value in the assay on Trica-SKR2 [2] (setting [9]) is 100.0%. Also, the “signal in empty-vector transfected CHO-PAM28 cells” value in assay [7] is listed as “no signal was observed”. The “signal in empty-vector transfected HEK293T cells” value in assay [8] is on record as “no signal was observed”.
